The values below come from US20240116985A1, “STAPLED PEPTIDES AND METHODS THEREOF” (priority 2020, published 2024).

A short description of data set [1]: CHI Log D procedure. It is filed as physicochemical.
In data set [2] the target is T1, full-length beta-Catenin (Uniprot ID P35222) (Homo sapiens, UniProt P35222).
T1 construct: 10 nM full-length beta-Catenin (Uniprot ID P35222)
T1 sequence (P35222 1-781): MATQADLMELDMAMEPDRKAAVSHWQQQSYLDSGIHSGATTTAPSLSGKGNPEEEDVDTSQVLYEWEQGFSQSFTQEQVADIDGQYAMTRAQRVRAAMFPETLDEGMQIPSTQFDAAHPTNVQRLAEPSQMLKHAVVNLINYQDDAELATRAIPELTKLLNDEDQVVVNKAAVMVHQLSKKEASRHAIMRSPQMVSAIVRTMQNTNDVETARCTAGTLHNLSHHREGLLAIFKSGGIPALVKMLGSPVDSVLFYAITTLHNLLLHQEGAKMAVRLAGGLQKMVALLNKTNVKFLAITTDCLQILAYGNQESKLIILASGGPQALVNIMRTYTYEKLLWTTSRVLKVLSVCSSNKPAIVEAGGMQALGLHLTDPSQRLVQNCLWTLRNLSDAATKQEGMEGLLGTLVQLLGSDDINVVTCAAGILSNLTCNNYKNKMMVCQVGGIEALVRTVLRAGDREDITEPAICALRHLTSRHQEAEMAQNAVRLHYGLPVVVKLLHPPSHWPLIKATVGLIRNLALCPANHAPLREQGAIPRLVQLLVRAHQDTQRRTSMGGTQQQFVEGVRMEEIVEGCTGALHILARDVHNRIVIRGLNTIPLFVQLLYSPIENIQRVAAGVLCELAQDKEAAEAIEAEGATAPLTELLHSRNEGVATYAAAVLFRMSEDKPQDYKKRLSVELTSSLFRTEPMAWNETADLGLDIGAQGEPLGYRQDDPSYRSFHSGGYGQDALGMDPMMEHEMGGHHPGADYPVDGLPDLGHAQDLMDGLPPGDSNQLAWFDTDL
Nature of the data set: Fluorescence polarization IC50 (beta-catenin / 5FAM-TCF4 10-53 competition). It is filed as binding. As to conditions: fluorescence polarization; read-out: beta-Catenin FP IC50.

Data set [3] deals with T2, beta-catenin/TCF4 engagement (Homo sapiens, UniProt P35222).
T2 construct: expressed in transfected cells; host or cells: HEK293
T2 sequence (P35222 1-781): T1 sequence (P35222 1-781)
Nature of the data set: Nano-BRET target engagement assay (B-cat-Halo & TCF4-Luc in HEK293 cells). It is filed as cell-based. The settings on record: read-out: NanoBRET Abs IC50. Background: BRET reads energy transfer from a luciferase to a nearby fluorophore.

In the case of `CC(=O)N[C@@H](Cc1ccccc1)C(=O)N[C@@H](CC(=O)O)C(=O)N[C@@H](C)C(=O)N[C@]1(C)CCN(C)C(=O)OCC=CCCCCC[C@@](C)(C(=O)N[C@@H](Cc2ccccc2)C(=O)N[C@@H](Cc2c[nH]c3ccccc23)C(=O)N[C@@H](CCC(N)=O)C(N)=O)NC(=O)[C@H](C(C)C)NC(=O)[C@H](Cc2ccccc2)NC(=O)[C@H](C)NC(=O)[C@H](C)NC(=O)[C@H](CC(=O)O)NC(=O)[C@H](CC(=O)O)NC1=O` (single isomer, unassigned) [I-1, Ac-Phe-Asp-Ala-RdN-Asp-Asp-Ala-Ala-Phe-Val-S7-Phe-Trp-Gln-NH2], in data set [1] (pH 7.4, CHI Log D), the chromatographic logD – broadly, a lipophilicity value derived from retention on a column – was determined as 1.27.

On to `CC(=O)N[C@@H](Cc1ccccc1)C(=O)N[C@@H](CC(=O)O)C(=O)N[C@@H](C)C(=O)N[C@]1(C)CCN(C)C(=O)OCC=CCCCCC[C@@](C)(C(=O)N[C@@H](Cc2ccccc2)C(=O)N[C@@H](Cc2c[nH]c3ccccc23)C(=O)N[C@@H](CCC(N)=O)C(N)=O)NC(=O)[C@H](C(C)C)NC(=O)[C@H](Cc2ccccc2)NC(=O)[C@H](C)NC(=O)[C@H](C)NC(=O)[C@H](CC(=O)O)NC(=O)[C@H](CC(=O)O)NC1=O` (single isomer, unassigned) [I-2, Ac-Phe-Asp-Ala-RdN-Asp-Asp-Ala-Ala-Phe-Val-S7-Phe-Trp-Gln-NH2], for which the “CHI Log D” value in data set [1] (pH 7.4) came out at 1.246.

Consider `CC(=O)N1CCC[C@H]1C(=O)N[C@]1(C)CCCCCCC2(CCCCCCCCOC(=O)N3CC[C@@](C(=O)N[C@@H](Cc4ccccc4C(F)(F)F)C(=O)N[C@@H](Cc4csc5ccccc45)C(=O)N[C@@H](CCC(N)=O)C(N)=O)(C3)NC(=O)[C@H](CC(C)C)NC(=O)[C@H](Cc3ccccc3)NC(=O)[C@H](C)NC(=O)[C@H](C)NC(=O)[C@H](Cc3cccc(C(=O)O)c3)NC(=O)[C@H](CC(=O)O)NC2=O)NC(=O)[C@H](CC(C)(C)C)NC(=O)[C@H](CC(=O)O)NC1=O` (stereo partly drawn) [I-2572, Ac-Pro-R3-Asp-Npg-B5-Asp-3COOHF-Ala-Ala-Phe-Leu-PyrS2-2F3MeF-BztA-Gln-NH2], for which the IC50 – broadly, the midpoint of a concentration-inhibition curve – in data set [2] is 67 nM; in data set [3] it was greater than 20000 nM.

Turning to `CC(=O)N1CCC[C@]12CC=CCCCC1(CCCC=CCCCOC(=O)N3CCC(C(=O)N[C@@H](Cc4ccccc4C(F)(F)F)C(=O)N[C@@H](Cc4csc5ccccc45)C(=O)N[C@@H](CCC(N)=O)C(N)=O)(CC3)NC(=O)[C@H](CC(C)C)NC(=O)[C@H](Cc3ccccc3)NC(=O)[C@H](C)NC(=O)[C@H](C)NC(=O)[C@H](Cc3cccc(C(=O)O)c3)NC(=O)[C@H](CC(=O)O)NC1=O)NC(=O)[C@H](CC(C)(C)C)NC(=O)[C@H](CC(=O)O)NC2=O` (stereo partly drawn) [I-2581, Ac-PL3-Asp-Npg-B5-Asp-3COOHF-Ala-Ala-Phe-Leu-SPip2-2F3MeF-BztA-Gln-NH2], the IC50 is 205 nM in data set [2] and greater than 20000 nM in data set [3].

For `CC(=O)N1CCC[C@]12CC=CCCCC1(CCCC=CCCCOC(=O)N3CCC(C(=O)N[C@@H](Cc4ccccc4C(F)(F)F)C(=O)N[C@@H](Cc4csc5ccccc45)C(=O)N[C@@H](CCC(N)=O)C(N)=O)(CC3)NC(=O)[C@H](CC(C)C)NC(=O)[C@H](Cc3ccccc3)NC(=O)[C@H](C)NC(=O)[C@H](C)NC(=O)[C@H](Cc3cccc(C(=O)O)c3)NC(=O)[C@H](CC(=O)O)NC1=O)NC(=O)[C@H](CC(C)(C)C)NC(=O)[C@H](CC(=O)O)NC2=O` (stereo partly drawn) [I-2582, Ac-PL3-Asp-Npg-B5-Asp-3COOHF-Ala-Ala-Phe-Leu-SPip2-2F3MeF-BztA-Gln-NH2], the IC50 in data set [2] is 263 nM; in data set [3], greater than 20000 nM.

For `CC(=O)N1CCC[C@]12CC=CCCCC1(CCCC=CCCCCOC(=O)N3CCC(C(=O)N[C@@H](Cc4ccccc4C(F)(F)F)C(=O)N[C@@H](Cc4csc5ccccc45)C(=O)N[C@@H](CCC(N)=O)C(N)=O)(CC3)NC(=O)[C@H](CC(C)C)NC(=O)[C@H](Cc3ccccc3)NC(=O)[C@H](C)NC(=O)[C@H](C)NC(=O)[C@H](Cc3cccc(C(=O)O)c3)NC(=O)[C@H](CC(=O)O)NC1=O)NC(=O)[C@H](CC(C)(C)C)NC(=O)[C@H](CC(=O)O)NC2=O` (stereo partly drawn) [I-2583, Ac-PL3-Asp-Npg-B5-Asp-3COOHF-Ala-Ala-Phe-Leu-SPip3-2F3MeF-BztA-Gln-NH2], the IC50 in data set [2] was 224 nM; in data set [3] it was greater than 20000 nM.

Regarding `CC(=O)N1CCC[C@]12CC=CCCCC1(CCCC=CCCCOC(=O)N3CCC(C(=O)N[C@@H](Cc4ccsc4)C(=O)N[C@@H](Cc4csc5ccccc45)C(=O)N[C@@H](CCC(N)=O)C(N)=O)(CC3)NC(=O)[C@H](CC(C)C)NC(=O)[C@H](Cc3ccccc3)NC(=O)[C@H](C)NC(=O)[C@H](C)NC(=O)[C@H](Cc3cccc(C(=O)O)c3)NC(=O)[C@H](CC(=O)O)NC1=O)NC(=O)[C@H](CC(C)(C)C)NC(=O)[C@H](CC(=O)O)NC2=O` (stereo partly drawn) [I-2589, Ac-PL3-Asp-Npg-B5-Asp-3COOHF-Ala-Ala-Phe-Leu-SPip2-3Thi-BztA-Gln-NH2], the IC50 in data set [2] stood at 25 nM; in data set [3], 15200 nM.

Consider `CC(=O)N1CCC[C@]12CC=CCCCC1(CCCC=CCCCCOC(=O)N3CCC(C(=O)N[C@@H](Cc4ccsc4)C(=O)N[C@@H](Cc4csc5ccccc45)C(=O)N[C@@H](CCC(N)=O)C(N)=O)(CC3)NC(=O)[C@H](CC(C)C)NC(=O)[C@H](Cc3ccccc3)NC(=O)[C@H](C)NC(=O)[C@H](C)NC(=O)[C@H](Cc3cccc(C(=O)O)c3)NC(=O)[C@H](CC(=O)O)NC1=O)NC(=O)[C@H](CC(C)(C)C)NC(=O)[C@H](CC(=O)O)NC2=O` (stereo partly drawn) [I-2590, Ac-PL3-Asp-Npg-B5-Asp-3COOHF-Ala-Ala-Phe-Leu-SPip3-3Thi-BztA-Gln-NH2], for which the IC50 in data set [2] was 25 nM; in data set [3], 18900 nM.

As to `CC(=O)N1CCC[C@]12CC=CCCCC1(CCCC=CCCCOC(=O)N3CCC(C(=O)N[C@@H](Cc4ccsc4)C(=O)N[C@@H](Cc4csc5ccccc45)C(=O)N[C@@H](C)C(N)=O)(CC3)NC(=O)[C@H](CC(C)C)NC(=O)[C@H](Cc3ccccc3)NC(=O)[C@H](C)NC(=O)[C@H](CCC(N)=O)NC(=O)[C@H](Cc3cccc(C(=O)O)c3)NC(=O)[C@H](CC(=O)O)NC1=O)NC(=O)[C@H](CC(C)(C)C)NC(=O)[C@H](CC(=O)O)NC2=O` (stereo partly drawn) [I-2592, Ac-PL3-Asp-Npg-B5-Asp-3COOHF-Gln-Ala-Phe-Leu-SPip2-3Thi-BztA-Ala-NH2], the IC50 in data set [2] was 37 nM; in data set [3], greater than 20000 nM.

Consider `CC(=O)N1CCC[C@]12CC=CCCCC1(CCCC=CCCCOC(=O)N3CCC(C(=O)N[C@@H](Cc4ccsc4)C(=O)N[C@@H](Cc4csc5ccccc45)C(=O)N[C@@H](C)C(N)=O)(CC3)NC(=O)[C@H](CC(C)C)NC(=O)[C@H](Cc3ccccc3)NC(=O)[C@H](C)NC(=O)[C@H](CCC(N)=O)NC(=O)[C@H](Cc3cccc(C(=O)O)c3)NC(=O)[C@H](CC(=O)O)NC1=O)NC(=O)[C@H](CC(C)(C)C)NC(=O)[C@H](CC(=O)O)NC2=O` (stereo partly drawn) [I-2593, Ac-PL3-Asp-Npg-B5-Asp-3COOHF-Gln-Ala-Phe-Leu-SPip2-3Thi-BztA-Ala-NH2], for which the IC50 in data set [2] is 27 nM; in data set [3], 29400 nM.

As to `CC(=O)N1CCC[C@]12CC1OC1CCCC1(CCCC=CCCCOC(=O)N3CC[C@@](C(=O)N[C@@H](Cc4ccsc4)C(=O)N[C@@H](Cc4csc5ccccc45)C(=O)N[C@@H](CCC(N)=O)C(N)=O)(C3)NC(=O)[C@H](CC(C)C)NC(=O)[C@H](Cc3ccccc3)NC(=O)[C@H](C)NC(=O)[C@H](C)NC(=O)[C@H](CN(CC(=O)O)CC(F)(F)F)NC(=O)[C@H](CC(=O)O)NC1=O)NC(=O)[C@H](CC(C)(C)C)NC(=O)[C@H](CC(=O)O)NC2=O` (stereo partly drawn) [I-2594, Ac-PL3-Asp-Npg-B5-Asp-TfeGA-Ala-Ala-Phe-Leu-PyrS2-3Thi-BztA-Gln-NH2], the IC50 in data set [2] was 470 nM; in data set [3], greater than 20000 nM.

For the molecule `CC(=O)N1CCC[C@]12CC1OC1CCCC1(CCCC=CCCCOC(=O)N3CC[C@@](C(=O)N[C@@H](Cc4ccsc4)C(=O)N[C@@H](Cc4csc5ccccc45)C(=O)N[C@@H](CCC(N)=O)C(N)=O)(C3)NC(=O)[C@H](CC(C)C)NC(=O)[C@H](Cc3ccccc3)NC(=O)[C@H](C)NC(=O)[C@H](C)NC(=O)[C@H](CN(CC(=O)O)CC(F)(F)F)NC(=O)[C@H](CC(=O)O)NC1=O)NC(=O)[C@H](CC(C)(C)C)NC(=O)[C@H](CC(=O)O)NC2=O` (stereo partly drawn) [I-2595, Ac-PL3-Asp-Npg-B5-Asp-TfeGA-Ala-Ala-Phe-Leu-PyrS2-3Thi-BztA-Gln-NH2], the 50% inhibitory concentration (IC50) in data set [2] was 356 nM; in data set [3], greater than 20000 nM.

Consider `CC(C)C[C@H](NC(=O)[C@]12CCN(C1)C(=O)OCCCC=CCCCC1(CCCC=CCCC(=O)N3CCC[C@@]3(C)C(=O)N[C@@H](CC(=O)O)C(=O)N1)C(=O)N[C@@H](C)C(=O)N[C@@H](CC(=O)O)C(=O)N[C@@H](CC(=O)O)C(=O)N[C@@H](C)C(=O)N[C@@H](C)C(=O)N[C@@H](Cc1ccccc1)C(=O)N2)C(=O)N[C@@H](Cc1ccsc1)C(=O)N[C@@H](Cc1csc2ccccc12)C(=O)N[C@@H](CCC(N)=O)C(N)=O` (stereo partly drawn) [I-2599, 4pentenyl-MePro-Asp-B5-Ala-Asp-Asp-Ala-Ala-Phe-PyrS2-Leu-3Thi-BztA-Gln-NH2], for which the values for the IC50 in data set [2] and in data set [3] were 234 nM and greater than 20000 nM, respectively.
